Assay: dissolution rate of ketoprofen in 0.1 N HCl
Format: physicochemical
Conditions: granulated with microcrystalline cellulose

dissolution rate of ketoprofen in 0.1N HCl (change after processing) (Example 1: ketoprofen ground/mixed with distilled water in TSGM, 200 rpm, 25° C., dried at 40° C.): increased two-fold
dissolution rate of ketoprofen in 0.1N HCl (change after processing) (Example 2: ketoprofen ground/mixed with 10% aqueous solution of Labrasol in TSGM): increased two-fold
dissolution rate of ketoprofen in 0.1N HCl (change after processing) (Example 3: ketoprofen ground/mixed with 10% aqueous solution of Tween 80 in TSGM): increased four-fold
dissolution rate of ketoprofen in 0.1N HCl (change after processing) (Example 4: ketoprofen ground/mixed with 10% aqueous solution of Capryol 90 in TSGM): increased two-fold
dissolution rate of ketoprofen in 0.1N HCl (change after processing) (Example 5: ketoprofen ground/mixed with 10% aqueous solution of polyvinylpyrrolidone in TSGM): increased three-fold
Structure (SMILES): CC(C(=O)O)c1cccc(C(=O)c2ccccc2)c1 (centres unmarked) [ketoprofen, Ketoprofen]

From patent US7607596B1, “Process for enhancing the solubility of poorly soluble drugs” (Exxpharma, LLC, priority 2007, dated 2009)
